Assay results taken from paper PMC7194404, “Arg-type dihydroflavonol 4-reductase genes from the fern Dryopteris erythrosora play important roles in the biosynthesis of anthocyanins” (PLoS ONE, 2020).

Tests used:
Experiment in all cases: HPLC of anthocyanidin formed from product, crude E. coli extract
Assay type in all cases: biochemical
Details in all cases: 0.8 mM substrate, 1.6 mM NADPH, 50 mM Tris-HCl pH 7.0, 30 °C, 30 min
AtDFR = target: T1, AtDFR (Arabidopsis thaliana, UniProt P51102)
T1 construct: gene DFRA; pET28a-AtDFR, E. coli BL21(DE3), crude soluble extract
T1 sequence (P51102 1-382): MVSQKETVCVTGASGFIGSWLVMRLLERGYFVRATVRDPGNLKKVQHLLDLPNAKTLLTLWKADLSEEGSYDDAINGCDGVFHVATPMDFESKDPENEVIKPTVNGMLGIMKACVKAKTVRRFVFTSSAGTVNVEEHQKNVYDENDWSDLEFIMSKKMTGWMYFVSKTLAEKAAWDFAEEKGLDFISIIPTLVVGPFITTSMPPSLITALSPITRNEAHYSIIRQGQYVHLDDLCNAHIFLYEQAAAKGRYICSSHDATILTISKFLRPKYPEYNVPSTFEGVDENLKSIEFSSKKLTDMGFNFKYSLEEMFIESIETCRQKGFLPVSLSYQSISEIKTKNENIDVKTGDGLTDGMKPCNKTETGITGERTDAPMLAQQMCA

DeDFR2 = target: T2, DeDFR2 (Dryopteris erythrosora, UniProt A0A5P8I1W3)
T2 construct: gene DFR2
T2 sequence (A0A5P8I1W3 1-341): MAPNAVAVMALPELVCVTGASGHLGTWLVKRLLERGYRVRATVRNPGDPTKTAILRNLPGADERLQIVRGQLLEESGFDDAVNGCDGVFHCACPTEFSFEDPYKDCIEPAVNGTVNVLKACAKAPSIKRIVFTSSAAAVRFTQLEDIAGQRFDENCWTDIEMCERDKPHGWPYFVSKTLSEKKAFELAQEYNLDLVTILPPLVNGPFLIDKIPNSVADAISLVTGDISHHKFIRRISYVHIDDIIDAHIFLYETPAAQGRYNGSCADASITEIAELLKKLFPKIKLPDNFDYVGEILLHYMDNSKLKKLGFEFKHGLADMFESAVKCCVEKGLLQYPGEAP

DeDFR1 = target: T3, DeDFR1 (Dryopteris erythrosora, UniProt A0A5P8I1X0)
T3 construct: gene DFR1
T3 sequence (A0A5P8I1X0 1-328): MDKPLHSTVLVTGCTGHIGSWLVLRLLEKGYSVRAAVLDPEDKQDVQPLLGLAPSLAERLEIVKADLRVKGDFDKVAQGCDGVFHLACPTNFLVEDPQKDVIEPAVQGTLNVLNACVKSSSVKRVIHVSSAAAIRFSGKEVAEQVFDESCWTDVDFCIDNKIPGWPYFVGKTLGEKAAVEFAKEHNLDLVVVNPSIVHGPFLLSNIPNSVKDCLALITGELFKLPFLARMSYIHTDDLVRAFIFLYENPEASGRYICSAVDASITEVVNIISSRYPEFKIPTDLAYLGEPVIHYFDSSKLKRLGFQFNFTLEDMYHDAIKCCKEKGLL

| Structure (SMILES) | HPLC of anthocyanidin formed from product, crude E. coli extract (AtDFR) | HPLC of anthocyanidin formed from product, crude E. coli extract (DeDFR2) | HPLC of anthocyanidin formed from product, crude E. coli extract (DeDFR1) |
| --- | --- | --- | --- |
| O=C1c2c(O)cc(O)cc2O[C@H](c2cc(O)c(O)c(O)c2)[C@H]1O [DHM, dihydromyricetin] | all three dihydroflavonols could be converted to pink anthocyanins |  |  |
| O=C1c2c(O)cc(O)cc2O[C@H](c2ccc(O)c(O)c2)[C@H]1O [DHQ, dihydroquercetin] | all three dihydroflavonols could be converted to pink anthocyanins | DeDFR1 and DeDFR2 had the ability to catalyze the DHK and DHQ reaction | DeDFR1 and DeDFR2 had the ability to catalyze the DHK and DHQ reaction |
| O=C1c2c(O)cc(O)cc2O[C@H](c2ccc(O)cc2)[C@H]1O [DHK, dihydrokaempferol] |  | DeDFR1 and DeDFR2 had the ability to catalyze the DHK and DHQ reaction | DeDFR1 and DeDFR2 had the ability to catalyze the DHK and DHQ reaction |
